Assay results: ChEMBL document CHEMBL5120947, “General Pharmacological Activation Mechanism of K+ Channels Bypassing Channel Gates” (J Med Chem, 2022)
pEC50: −log10 of the molar value. Activity calls are given as the source filed them. No cut-off for these calls is given here.

What was measured:
[1] = target: T1, Potassium channel subfamily K member 2 (Homo sapiens) (UniProt O95069); experiment: Activation of human TREK-1 expressed in CHO cells at 10 uM in presence of ML335 by patch clamp electrophysiology method; format: cell-based; details: filed as activator
T1 sequence (whole entry): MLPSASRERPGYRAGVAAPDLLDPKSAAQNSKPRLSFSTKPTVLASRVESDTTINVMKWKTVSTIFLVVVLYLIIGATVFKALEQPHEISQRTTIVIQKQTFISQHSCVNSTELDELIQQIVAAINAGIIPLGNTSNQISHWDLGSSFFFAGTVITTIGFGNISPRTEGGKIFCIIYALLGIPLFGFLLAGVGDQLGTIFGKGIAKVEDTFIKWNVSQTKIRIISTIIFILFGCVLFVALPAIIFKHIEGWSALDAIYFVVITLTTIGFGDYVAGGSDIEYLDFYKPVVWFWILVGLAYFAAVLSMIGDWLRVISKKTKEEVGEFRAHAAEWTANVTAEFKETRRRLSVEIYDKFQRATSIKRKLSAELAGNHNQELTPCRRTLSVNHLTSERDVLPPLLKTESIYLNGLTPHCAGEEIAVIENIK

[2] = Lipophilicity, logD of the compound; format: physicochemical; details: octanol/water
[3] = target: T2, Potassium voltage-gated channel subfamily KQT member 4 (Homo sapiens, UniProt P56696); experiment: Agonist activity at human KCNQ4 channel expressed in CHO cells assessed as increase in outward current by patch clamp electrophysiology method; format: cell-based
T2 sequence (P56696 whole entry): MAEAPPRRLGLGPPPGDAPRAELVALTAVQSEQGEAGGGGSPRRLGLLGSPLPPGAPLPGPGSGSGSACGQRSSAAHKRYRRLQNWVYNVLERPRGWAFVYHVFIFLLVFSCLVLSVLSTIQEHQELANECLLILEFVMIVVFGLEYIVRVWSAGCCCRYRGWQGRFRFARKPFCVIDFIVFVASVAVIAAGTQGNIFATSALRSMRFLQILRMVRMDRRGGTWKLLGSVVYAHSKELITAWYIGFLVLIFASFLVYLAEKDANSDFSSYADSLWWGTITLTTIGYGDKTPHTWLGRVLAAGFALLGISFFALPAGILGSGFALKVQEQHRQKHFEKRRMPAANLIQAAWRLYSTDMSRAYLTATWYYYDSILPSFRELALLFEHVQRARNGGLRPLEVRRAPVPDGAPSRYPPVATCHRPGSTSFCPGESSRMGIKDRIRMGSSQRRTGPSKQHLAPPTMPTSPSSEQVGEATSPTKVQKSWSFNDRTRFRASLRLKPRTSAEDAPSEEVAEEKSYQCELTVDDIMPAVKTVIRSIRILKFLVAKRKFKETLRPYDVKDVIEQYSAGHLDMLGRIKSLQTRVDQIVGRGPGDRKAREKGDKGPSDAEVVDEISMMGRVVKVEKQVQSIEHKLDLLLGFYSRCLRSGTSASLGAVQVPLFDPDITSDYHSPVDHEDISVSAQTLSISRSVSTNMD

[4] = target: Potassium voltage-gated channel subfamily KQT member 5 (Homo sapiens, UniProt Q9NR82); experiment: Agonist activity at human KCNQ5 channel expressed in CHO cells assessed as increase in outward current by patch clamp electrophysiology method; format: cell-based
Sequence of Potassium voltage-gated channel subfamily KQT member 5 (Q9NR82 whole entry): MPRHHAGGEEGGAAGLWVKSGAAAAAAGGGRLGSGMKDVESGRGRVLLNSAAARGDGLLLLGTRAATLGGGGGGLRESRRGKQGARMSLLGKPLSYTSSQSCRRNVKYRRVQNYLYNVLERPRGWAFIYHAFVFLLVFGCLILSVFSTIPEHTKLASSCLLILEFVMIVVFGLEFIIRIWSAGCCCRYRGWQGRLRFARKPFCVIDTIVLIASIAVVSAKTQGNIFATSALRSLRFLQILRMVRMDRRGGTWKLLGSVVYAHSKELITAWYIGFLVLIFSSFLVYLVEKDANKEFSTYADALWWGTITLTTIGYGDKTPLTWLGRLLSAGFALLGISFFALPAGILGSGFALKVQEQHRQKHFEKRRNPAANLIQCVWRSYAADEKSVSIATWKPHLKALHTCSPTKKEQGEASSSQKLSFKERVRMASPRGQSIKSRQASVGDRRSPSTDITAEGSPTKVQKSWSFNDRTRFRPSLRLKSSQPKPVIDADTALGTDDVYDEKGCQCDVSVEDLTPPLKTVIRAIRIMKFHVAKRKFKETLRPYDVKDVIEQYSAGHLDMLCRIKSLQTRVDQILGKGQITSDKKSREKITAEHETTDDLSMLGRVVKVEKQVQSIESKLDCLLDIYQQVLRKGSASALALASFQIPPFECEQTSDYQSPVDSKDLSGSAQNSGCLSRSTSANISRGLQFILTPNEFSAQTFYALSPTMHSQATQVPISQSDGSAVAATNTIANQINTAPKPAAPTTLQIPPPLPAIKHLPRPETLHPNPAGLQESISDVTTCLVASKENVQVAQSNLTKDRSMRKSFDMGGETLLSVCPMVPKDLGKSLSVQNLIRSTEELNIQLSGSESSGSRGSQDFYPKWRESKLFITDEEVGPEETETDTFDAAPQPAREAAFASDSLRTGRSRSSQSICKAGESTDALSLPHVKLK

[5] = target: Potassium voltage-gated channel subfamily KQT member 2 (Homo sapiens) (UniProt O43526); experiment: Agonist activity at human KCNQ2 expressed in CHO cells assessed as increase in outward current at 10 uM at 50 mV by patch clamp electrophysiology method; format: cell-based; details: filed as agonist
Sequence of Potassium voltage-gated channel subfamily KQT member 2 (Homo sapiens) (O43526 whole entry): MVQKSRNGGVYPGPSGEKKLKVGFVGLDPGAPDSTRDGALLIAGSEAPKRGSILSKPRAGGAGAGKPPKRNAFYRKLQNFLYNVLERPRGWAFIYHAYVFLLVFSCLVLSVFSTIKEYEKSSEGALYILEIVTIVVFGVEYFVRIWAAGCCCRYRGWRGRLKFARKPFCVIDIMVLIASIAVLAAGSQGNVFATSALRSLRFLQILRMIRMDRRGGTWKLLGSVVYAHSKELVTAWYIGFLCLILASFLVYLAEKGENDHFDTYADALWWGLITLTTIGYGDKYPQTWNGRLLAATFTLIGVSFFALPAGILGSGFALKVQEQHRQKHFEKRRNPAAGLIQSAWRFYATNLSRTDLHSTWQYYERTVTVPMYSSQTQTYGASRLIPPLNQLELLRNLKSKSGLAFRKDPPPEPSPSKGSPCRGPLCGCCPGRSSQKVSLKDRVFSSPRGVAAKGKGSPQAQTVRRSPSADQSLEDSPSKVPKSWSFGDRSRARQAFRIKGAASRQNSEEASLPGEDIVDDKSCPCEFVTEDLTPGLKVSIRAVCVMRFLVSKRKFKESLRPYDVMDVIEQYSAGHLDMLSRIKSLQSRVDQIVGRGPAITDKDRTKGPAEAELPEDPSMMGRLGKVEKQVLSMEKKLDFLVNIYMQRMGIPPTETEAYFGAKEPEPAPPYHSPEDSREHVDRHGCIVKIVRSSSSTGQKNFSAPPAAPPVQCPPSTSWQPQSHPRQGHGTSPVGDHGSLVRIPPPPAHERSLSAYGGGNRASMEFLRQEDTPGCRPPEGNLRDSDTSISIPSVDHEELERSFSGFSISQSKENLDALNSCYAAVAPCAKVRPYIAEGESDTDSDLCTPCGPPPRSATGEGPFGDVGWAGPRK

Activity [1]	logD [2]	Structure (SMILES)	other results
Active	–	c1ccc(-c2nnn[nH]2)c(Nc2cccc3c2CCCC3)c1	–
Active	–	O=C(O)c1ccccc1Nc1ccc(CCc2ccc(Cl)c(Cl)c2)cc1	–

The next lines start with the compound.

Structure (SMILES)	Activity [1]	logD [2]	other results
Cc1ccc(CSCc2nnc(SCC(=O)Nc3ccc(Br)cc3F)n2C)cc1	–	4.38	–
Cc1ccc(CSCc2nnc(SCC(=O)Nc3ccc(Br)cc3Br)n2C)cc1	–	4.79	pEC50 [3]: 5.19; pEC50 [4]: 5.35
Cc1ccc(CSCc2nnc(SCC(=O)Nc3ccc(Br)cc3I)n2C)cc1	–	4.66	–
O=C(Nc1ccc(Cl)nc1)c1ccc(F)cc1	–	–	Activity [5]: Active
